Each compound was assayed on lipid peroxidation (cerebral tissue homogenate) (assay: Inhibition test of lipid peroxidation (malondialdehyde formation, thiobarbituric acid method)). Conditions: 5 μM, rat cerebral tissue supernatant, pH 7.4, 37° C., 30 minutes.

Compound	Inhibition (%) Dose 5 μM [%]
Nc1n[nH]c(N(CCSSCCN(Cc2ccc(OCc3ccccc3)cc2)c2nc(N)n[nH]2)Cc2ccc(OCc3ccccc3)cc2)n1 [Compound 18]	71.7
Nc1n[nH]c(N(CCSSCCN(Cc2cccc([N+](=O)[O-])c2)c2nc(N)n[nH]2)Cc2cccc([N+](=O)[O-])c2)n1 [Compound 19]	21.3
Cc1ccccc1CN(CCSSCCN(Cc1ccccc1C)c1nc(N)n[nH]1)c1nc(N)n[nH]1 [Compound 24]	41.6
Cc1ccc(CN(CCSSCCN(Cc2ccc(C)cc2)c2nc(N)n[nH]2)c2nc(N)n[nH]2)cc1 [Compound 25]	51.8
Nc1n[nH]c(N(CCSSCCN(Cc2ccc3ccccc3c2)c2nc(N)n[nH]2)Cc2ccc3ccccc3c2)n1 [Compound 39]	56.3
Cc1cccc(CN(CCSSCCN(Cc2cccc(C)c2)c2nc(N)n[nH]2)c2nc(N)n[nH]2)c1 [Compound 23]	48.1
Nc1n[nH]c(N(CCSSCCN(Cc2ccc(Br)cc2)c2nc(N)n[nH]2)Cc2ccc(Br)cc2)n1 [Compound 14]	49.2
Nc1n[nH]c(N(CCSSCCN(Cc2cccc(C(F)(F)F)c2)c2nc(N)n[nH]2)Cc2cccc(C(F)(F)F)c2)n1 [Compound 22]	36.6
Nc1nc(N(CCSSCCN(Cc2ccccc2)c2n[nH]c(N)n2)Cc2ccccc2)n[nH]1 [Compound 7, bis{2-[N-benzyl-N-(5-amino-1,2,4-triazol-3-yl)amino]ethyl}disulfide]	31.4
CC(C)(C)c1ccc(CN(CCSSCCN(Cc2ccc(C(C)(C)C)cc2)c2nc(N)n[nH]2)c2nc(N)n[nH]2)cc1 [Compound 33]	35.6
Nc1n[nH]c(N(CCSSCCN(Cc2ccc(-c3ccccc3)cc2)c2nc(N)n[nH]2)Cc2ccc(-c3ccccc3)cc2)n1 [Compound 34]	55.8
Cc1ccc(C)c(CN(CCSSCCN(Cc2cc(C)ccc2C)c2nc(N)n[nH]2)c2nc(N)n[nH]2)c1 [Compound 29]	70.8
vitamin E [reference compound]	12.6
COc1ccc(CN(CCSSCCN(Cc2ccc(OC)cc2)c2nc(N)n[nH]2)c2nc(N)n[nH]2)cc1 [Compound 17]	22.2
Nc1n[nH]c(N(CCSSCCN(Cc2ccc([N+](=O)[O-])cc2)c2nc(N)n[nH]2)Cc2ccc([N+](=O)[O-])cc2)n1 [Compound 20]	35.2
Cc1ccc(CN(CCSSCCN(Cc2ccc(C)c([N+](=O)[O-])c2)c2nc(N)n[nH]2)c2nc(N)n[nH]2)cc1[N+](=O)[O-] [Compound 37]	31.4
Nc1n[nH]c(N(CCSSCCN(Cc2cccc(Br)c2)c2nc(N)n[nH]2)Cc2cccc(Br)c2)n1 [Compound 13]	51.1
Cc1cc(C)c(CN(CCSSCCN(Cc2c(C)cc(C)cc2C)c2nc(N)n[nH]2)c2nc(N)n[nH]2)c(C)c1 [Compound 30]	85.8
Nc1n[nH]c(N(CCSSCCN(Cc2cccc3ccccc23)c2nc(N)n[nH]2)Cc2cccc3ccccc23)n1 [Compound 38]	56.8

Same assay, conditions: 100 μM, rat cerebral tissue supernatant, pH 7.4, 37° C., 30 minutes

Compound	Inhibition (%) Dose 100 μM [%]
Nc1n[nH]c(N(CCSSCCN(Cc2cccc([N+](=O)[O-])c2)c2nc(N)n[nH]2)Cc2cccc([N+](=O)[O-])c2)n1 [Compound 19]	100
CC(C)N(CCSSCCN(c1nc(N)n[nH]1)C(C)C)c1nc(N)n[nH]1 [Compound 6]	55.7
Nc1nc(N(CCSSCCN(Cc2ccccc2)c2n[nH]c(N)n2)Cc2ccccc2)n[nH]1 [Compound 7, bis{2-[N-benzyl-N-(5-amino-1,2,4-triazol-3-yl)amino]ethyl}disulfide]	96.0
vitamin E [reference compound]	30.5
COc1ccc(CN(CCSSCCN(Cc2ccc(OC)cc2)c2nc(N)n[nH]2)c2nc(N)n[nH]2)cc1 [Compound 17]	100
